# Assays:
# U2932 cells = assay: Cell viability by trypan blue assay, U2932; assay type: cell-based, human; conditions: U2932, in comparison to PBS treated control cells
# Experimental: (§1) Cell viability was performed using trypan blue-based assay (n=3 technical triplicate), data represented as mean±(SEM), * represents the statistical analysis were performed relative to Scr-γtcPNA-155 and ♦ represent analysis performed relative to PNA-155. *p<0.05, **p<0.01, ***p<0.001 and ****p<0.0001, ♦p<0.05, ♦♦p<0.01, unpaired two-tailed t-test was used for statistical analysis. The experiment was repeated three times and in triplicate.
# (§2) Cell viability was performed using trypan blue-based assay (n=3), data represented as mean±standard error mean (SEM), *p<0.05, **p<0.01. Unpaired two-tailed t-test was used for statistical analysis.
# (§3) Cell viability was performed using trypan blue-based assay (n=3), data represented as mean±standard error mean (SEM).
# (§4) Cell viability by trypan blue assay: Diffused large B cell lymphoma (DLBCL) cell lines like SUDHL-2 (ATCC® CRL-2956™) and SUDHL-5 (ATCC® CRL-2958™) cells were purchased from ATCC (Virginia, USA). The cells were regularly tested for Mycoplasma contamination using MycoAlert™ Mycoplasma detection kit (Lonza). All the cells used in the experiment were passaged less than 8 times. 10,000 U2932, SUDHL-5, or SUDHL-2 cells were plated in a 96 well plate. The cells were treated with different doses (500 nM, 1000 nM, 2000 nM and 4000 nM) of PNA-155, gamma tcPNA-155 or Scr-γtcPNA-155 for 48 hrs in an incubator (37° C. and 5% CO2). The dead cells were marked with trypan blue. Further counting was performed using an automated cell counter (Bio-rad).
# SUDHL-2 cells = assay: Cell viability by trypan blue assay, SUDHL-2; assay type: cell-based; conditions: SUDHL-2, in comparison to PBS treated control cells
# Experimental: as §1, §2, §3, §4
# SUDHL-5 cells = assay: Cell viability by trypan blue assay, SUDHL-5; assay type: cell-based; conditions: SUDHL-5, in comparison to PBS treated control cells
# Experimental: as §1, §2, §3, §4
# PBMC cells = assay: Safety assessment by trypan blue assay in PBMC; assay type: cell-based; conditions: 500-4000 nM, 48 hours
# Experimental: Control is PBS treated PBMC cells. n=3, data represented as mean±standard error mean (SEM).
# Safety assessment by trypan blue assay […] blood mononuclear cells (PBMC) (ATCC® PCS-800-011™) were purchased from ATCC (Virginia, USA). The cells were regularly tested for Mycoplasma contamination using MycoAlert™ Mycoplasma detection kit (Lonza). All the cells used in the experiment were passaged less than 2 times. 10,000 PBMC cells were seeded in a 96 well plate. The cells were treated with 500 nM, 1000 nM, 2000 nM and 4000 nM PNA-155 and γtcPNA-155 for 48 hrs in an incubator. The dead cells were examined with trypan blue and further counted using an automated cell counter (Bio-rad).
# [1] = test system: U2932 subcutaneous tumors; assay: Tumor growth in U2932 derived xenograft model; assay type: in vivo, NSG mice; conditions: intra-tumoral injections days 0, 7, 14
# Experimental: Mouse tumor xenograft: Female NSG mice (NOD.Cg-Prkdcscid Il2rgtm1Wjl/SzJ, strain 005557) weighing 20-23 g were procured from Jackson laboratories. 1×10^7 U2932 cells suspended in RPMI-1640 medium were injected subcutaneously in the right and left flank of 6-week-old NSG mice. The mice developed a small bump in 2 weeks. When the tumor volume reached 100-200 mm^3, the mice were randomly assigned to the treatment group (n=6 per group).
# (§5) RNA and Protein extraction from tumor samples: The mice were injected intra-tumorally with 1 mg kg-1 dose of PNA-155, γtcPNA-155, γPNA-155, Scr-γtcPNA-155 or were untreated. The injections were repeated two additional times after 1 week each. The length, breadth, and depth of the tumors were measured daily using a vernier caliper. The mice were euthanized when the tumor volumes reached 2000 mm^3. The resected tumor sections were finely minced using a sterile blade and suspended in dissociation media (4 ml) comprising of RPMI-1640, 1.2 mg/ml dispase, and 0.5 mg/ml collagenase for 90 mins at 500 rpm at 37° C. The dissociated tumors were washed with buffer saline at 2500 rpm (4 mins) at 4° C. and then suspended in 0.25% trypsin for 4 mins at room temperature. RPMI 1640 media was added to the trypsinized tumor mass, and the cells were passed through a 70 um filter. The cells were centrifuged at 2500 rpm for 4 mins at 4° C. The cell pellet was then suspended in 1×RBC lysis buffer (Sigma) and incubated on ice for 10 mins. PBS was added to the cells and the cells were passed through a 40 um filter. The cells were centrifuged at 2500 rpm for 4 mins at 4° C. The cell pellet was resuspended in 0.5% BSA in PBS. The mouse cells were removed from the tumor cells using a mouse cell depletion kit (Miltenyi Biotec) according to the manufacturer's protocol. The enriched tumor cells from each tumor sample were divided into two fractions. RNA for gene expression analysis was extracted from one tumor fraction by the same procedure as mentioned earlier. The protein for western blot analysis was extracted from the second fraction using the method described above.
# For the efficacy study, each mouse received three intra-tumoral injections of either γtcPNA-155, γPNA-155 or PNA-155 on days 0, 7, 14. We noticed that the control and scrambled treated tumors reached 2000 mm^3 much faster during our study, so we could not inject a third time in these mice. […] In contrast, as stated earlier, there was no effect on the control and scrambled PNA control on the tumor volume.
# miR-155 = miR-155 gene expression in U2932 tumor samples after in vivo treatment; parameters: species or system NSG mice; conditions: U2932 xenograft
# Experimental: (§6) FIGS. 22A-D show in vivo gene expression and protein level analysis. (22A) miR-155 gene expression levels in U2932 tumor samples after in vivo treatment with indicated PNAs. Data was normalized with average control U6 (n=4, data represented as mean±standard error mean). ***p<0.001 (22B) Gene expression level of downstream target genes of miR-155: MCL1 in U2932 tumor samples after treatment with total 3 mg kg-1 dose of Scr-γtcPNA-155, PNA-155, γPNA-155 and γtcPNA-155 and normalized with average control GAPDH (n=3, data represented as mean±SEM), unpaired two-tailed t-test was performed for analysis). *p<0.05, **p<0.01 (22C) Representative western blot of Mcl-1 protein and its quantification (n=3 technical replicate) in U2932 tumor samples treated with total 3 mg kg-1 dose of Scr-γtcPNA-155, PNA-155 and γtcPNA-155. Data is represented as mean±SEM and unpaired two-tailed t-test was performed for analysis. *p<0.05. The relative protein levels were determined from the band intensity using ImageJ software and normalized relative to loading control and treatment control. (22D) Gene expression level of tumor suppressor proteins (FOXO3A, CUX1, SOCS1, CSF1R, JARID2, SHIP1, PICALM, PDCD4, BACH1, CASP3) in U2932 tumor samples after treatment with total 3 mg kg-1 dose of Scr-γtcPNA-155, PNA-155, γPNA-155 and γtcPNA-155 and normalized with average control GAPDH (n=3, data represented as mean±SEM, unpaired two-tailed t-test was performed for statistical analysis). *p<0.05, **p<0.01.
# as §5, with “The mouse cells were removed from the tumor cells using a mouse cell depletion kit (Miltenyi Biotec) according to the manufacturer's protocol. The enriched tumor cells from each tumor sample were divided into two fractions. RNA for gene expression analysis was extracted from one tumor fraction by the same procedure as mentioned earlier. The protein for western blot analysis was extracted from the second fraction using the method described above.” left out
# miR-155 downstream genes = assay: Downstream gene expression and protein levels in U2932 tumor samples; assay type: in vivo, NSG mice; conditions: U2932 xenograft
# Experimental: as §6
# Data is represented as mean±SEM and unpaired t-test was used for statistical analysis *p<0.05. The relative protein levels were determined from the band intensity using ImageJ software and normalized relative to loading control and treatment control.
# Data is represented as mean±SEM and unpaired t-test was used for statistical analysis.
# Data is represented as mean±SEM and unpaired t-test was used for statistical analysis. The relative protein levels were determined from the band intensity using ImageJ software and normalized relative to loading control and treatment control.
# as §5
substance,measurement,setting,value
"Scr-γtcPNA-155: scrambled γtcPNA-155 synthesized as a control, SEQ ID NO: 4 (ACNTGCCATTNCACGAACNCT; gamma PNA backbone; scramble sequence; misc_feature 1 Arg-Arg-adenine-thymine-pseudoisocytosine-thymine -adenine-11-amino-3,6,9-trioxaundecanoic acid covalently linked to the backbone; modified_base 3 OTHER; n is pseudoisocytosine; modified_base 11 OTHER; misc_feature 21 Arg-Arg covalently linked to the backbone; modified_base 19 OTHER; modified_base 1..21 OTHER; peptid) [reference compound]",effect on cell viability,U2932 cells,did not notice any effect on cell viability
same,effect on cell viability,SUDHL-2 cells,did not notice any effect on cell viability
same,effect on cell viability,SUDHL-5 cells,did not notice any effect on cell viability
same,viability of PBMC cell lines,PBMC cells,do not cause any non-specific effects
same,tumor growth / tumor volume,[1],no effect
same,miR-155 expression level in tumors (change),miR-155,did not observe a change
same,alteration in gene expression in tumors,miR-155 downstream genes,did not notice any alteration
same,Mcl-1 protein level in tumors,miR-155 downstream genes; western blot,did not notice any alteration
